Reference: PubChem BioAssay AID330 (DTP/NCI, 2004)
Several values for one entry are separate records, joined by “and”; a condition that tells them apart may be missing. Equal entries are not always repeated. Toxic doses and inconclusive results are not listed. How the source made its calls: active means survival T/C of 150% or more; inactive means T/C below 125% in these data.

Test system: P388 leukemia ip, CD2F1 mice, survival T/C
Assay: NCI In Vivo Anticancer Drug Screen. Data for tumor model P388 Leukemia (intraperitoneal) in CD2F1 (CDF1) mice
Settings: endpoint: median survival time, higher = longer survival
In short: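 Mice carrying the transplanted tumor received test compound or vehicle. Survival was recorded in each group, and the value is the treated-group measurement divided by that of the vehicle-treated control group.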

[1] = dose: 60.0 mg/kg/injection, schedule: Q01DX005 (ip), vehicle: Klucel (hydroxypropylcellulose) (HPC)
[2] = dose: 120.0 mg/kg/injection, schedule: Q01DX005 (ip), vehicle: Klucel (hydroxypropylcellulose) (HPC)
[3] = dose: 240.0 mg/kg/injection, schedule: Q01DX005 (ip), vehicle: Klucel (hydroxypropylcellulose) (HPC)
[4] = dose: 12.5 mg/kg/injection, schedule: Q01DX005 (ip), vehicle: Klucel (hydroxypropylcellulose) (HPC)
[5] = dose: 100.0 mg/kg/injection, schedule: Q01DX009 (ip), vehicle: Klucel (hydroxypropylcellulose) (HPC)
[6] = dose: 200.0 mg/kg/injection, schedule: Q01DX009 (ip), vehicle: Klucel (hydroxypropylcellulose) (HPC)
[7] = dose: 25.0 mg/kg/injection, schedule: Q01DX005 (ip), vehicle: Klucel (hydroxypropylcellulose) (HPC)
[8] = dose: 50.0 mg/kg/injection, schedule: Q01DX005 (ip), vehicle: Klucel (hydroxypropylcellulose) (HPC)
[9] = dose: 50.0 mg/kg/injection, schedule: Q01DX009 (ip), vehicle: saline with Tween-80
[10] = dose: 100.0 mg/kg/injection, schedule: Q01DX009 (ip), vehicle: saline with Tween-80
[11] = dose: 200.0 mg/kg/injection, schedule: Q01DX009 (ip), vehicle: saline with Tween-80
[12] = dose: 60.0 mg/kg/injection, schedule: Q01DX005 (ip), vehicle: saline with Tween-80
[13] = dose: 120.0 mg/kg/injection, schedule: Q01DX005 (ip), vehicle: saline with Tween-80
[14] = dose: 240.0 mg/kg/injection, schedule: Q01DX005 (ip), vehicle: saline with Tween-80
[15] = dose: 100.0 mg/kg/injection, schedule: Q01DX005 (ip), vehicle: Klucel (hydroxypropylcellulose) (HPC)
[16] = dose: 50.0 mg/kg/injection, schedule: Q01DX009 (ip), vehicle: saline
[17] = dose: 100.0 mg/kg/injection, schedule: Q01DX009 (ip), vehicle: saline
[18] = dose: 100.0 mg/kg/injection, schedule: Q01DX001 (ip), vehicle: Klucel (hydroxypropylcellulose) (HPC)
[19] = dose: 200.0 mg/kg/injection, schedule: Q01DX001 (ip), vehicle: Klucel (hydroxypropylcellulose) (HPC)
[20] = dose: 400.0 mg/kg/injection, schedule: Q01DX001 (ip), vehicle: Klucel (hydroxypropylcellulose) (HPC)

Measured: T/C

COc1ccc(/C=C2/C(=O)N(c3ccccc3)N=C2C)c(OC)c1
inactive: dose: 30.0 mg/kg/injection, schedule: Q01DX005 (ip), vehicle: Klucel (hydroxypropylcellulose) (HPC) 91 % of control | [1] 88 % of control and 95 % of control | [2] 94 % of control | [3] 86 % of control

CCC1(CC)C(=O)NC(=O)[N]([Sn]([CH2]C)([CH2]C)[N]2C(=O)NC(=O)C(CC)(CC)C2=O)C1=O
inactive: dose: 1.56 mg/kg/injection, schedule: Q01DX005 (ip), vehicle: Klucel (hydroxypropylcellulose) (HPC) 90 % of control | dose: 3.12 mg/kg/injection, schedule: Q01DX005 (ip), vehicle: Klucel (hydroxypropylcellulose) (HPC) 111 % of control and 117 % of control | dose: 6.25 mg/kg/injection, schedule: Q01DX005 (ip), vehicle: Klucel (hydroxypropylcellulose) (HPC) 120 % of control | [4] 111 % of control

O=C(O)C(S)c1ccc2ccccc2c1 (stereo not given)
inactive: [5] 90 % of control | [6] 100 % of control

CSC(=Nc1nc2ccc([N+](=O)[O-])cc2s1)SC
inactive: dose: 6.25 mg/kg/injection, schedule: Q01DX009 (ip), vehicle: Klucel (hydroxypropylcellulose) (HPC) 101 % of control | dose: 12.5 mg/kg/injection, schedule: Q01DX009 (ip), vehicle: Klucel (hydroxypropylcellulose) (HPC) 103 % of control | dose: 25.0 mg/kg/injection, schedule: Q01DX009 (ip), vehicle: Klucel (hydroxypropylcellulose) (HPC) 103 % of control

NC(=O)CC(NC(=O)OCC1c2ccccc2-c2ccccc21)C(=O)O (stereo not given)
inactive: [4] 92 % of control | [7] 100 % of control | [8] 100 % of control and 105 % of control

Cc1cc(O)c(C)c(C(=O)O)c1
inactive: [9] 99 % of control | [10] 99 % of control | [11] 92 % of control

O/N=C/C1CCCC[N-]1.[Co+3].[O-]/N=C/C1CCCC[N-]1.[O-]/N=C/C1CCCC[N-]1.[O-][Cl+3]([O-])([O-])O (stereo not given)
inactive: [12] 97 % of control | [13] 103 % of control | [14] 104 % of control

CC1=C(CO)C(=O)OC(C(C)C2CCC3C4CC5OC56C(O)C(N5CCCCC5)CC(=O)C6(C)C4CCC23C)C1 (stereo not given)
inactive: dose: 7.0 mg/kg/injection, schedule: Q01DX005 (ip), vehicle: Klucel (hydroxypropylcellulose) (HPC) 101 % of control | dose: 14.0 mg/kg/injection, schedule: Q01DX005 (ip), vehicle: Klucel (hydroxypropylcellulose) (HPC) 94 % of control | dose: 28.0 mg/kg/injection, schedule: Q01DX005 (ip), vehicle: Klucel (hydroxypropylcellulose) (HPC) 96 % of control | dose: 56.0 mg/kg/injection, schedule: Q01DX005 (ip), vehicle: Klucel (hydroxypropylcellulose) (HPC) 101 % of control | dose: 112.0 mg/kg/injection, schedule: Q01DX005 (ip), vehicle: Klucel (hydroxypropylcellulose) (HPC) 97 % of control

Nc1cccc(S(=O)(=O)N/N=C/C(=O)O)c1
inactive: dose: 12.5 mg/kg/injection, schedule: Q01DX009 (ip), vehicle: water 111 % of control | dose: 25.0 mg/kg/injection, schedule: Q01DX009 (ip), vehicle: water 116 % of control | dose: 50.0 mg/kg/injection, schedule: Q01DX009 (ip), vehicle: water 119 % of control | dose: 100.0 mg/kg/injection, schedule: Q01DX009 (ip), vehicle: water 117 % of control

CN(C)C1=NC(NC2CCCCC2)(N(C)C)OC(N(C)C)=N1 (stereo not given)
inactive: [7] 105 % of control | [8] 96 % of control | [15] 100 % of control

COC(=O)/C=C1\C[C@H]2C[C@]3(O)O[C@H](C[C@@H](O)CC(=O)O[C@@H]([C@@H](C)O)C[C@@H]4C/C(=C\C(=O)OC)[C@H](OC(C)=O)[C@@](O)(O4)C(C)(C)/C=C/[C@@H](C1)O2)C[C@H](OC(=O)CC(C)C)C3(C)C
inactive: dose: 3.0 micrograms/kg/injection, schedule: Q01DX009 (ip), vehicle: saline + alcohol 111 % of control | dose: 5.0 micrograms/kg/injection, schedule: Q01DX009 (ip), vehicle: saline + alcohol 113 % of control

CCOC(=O)/C(N)=N/N=Nc1ccc([N+](=O)[O-])cc1
inactive: [16] 103 % of control | [17] 103 % of control

O=C1OC2CS(=O)CC2O1 (stereo not given)
inactive: [9] 104 % of control | [16] 102 % of control | [10] 101 % of control | [17] 101 % of control | [11] 95 % of control | dose: 200.0 mg/kg/injection, schedule: Q01DX009 (ip), vehicle: saline 99 % of control

O=[N+]([O-])c1ccccc1S(=O)(=O)N(CCCCCN(S(=O)(=O)c1ccccc1[N+](=O)[O-])S(=O)(=O)c1ccccc1[N+](=O)[O-])S(=O)(=O)c1ccccc1[N+](=O)[O-]
inactive: [1] 89 % of control | [2] 87 % of control | [3] 87 % of control

CCC1(CC)CCC(C(=O)OC)/C1=N\Nc1ccc([N+](=O)[O-])cc1[N+](=O)[O-] (stereo not given)
inactive: [18] 102 % of control | [19] 98 % of control | [20] 100 % of control

CN1C(=O)/C(=C2\SC(=O)N(Cc3nc4ccccc4[nH]3)C2=O)c2cc(Br)ccc21
inactive: [18] 98 % of control | [19] 95 % of control | [20] 88 % of control

O=C1c2ccccc2C(=O)N1Cc1cccc(I)c1
inactive: [1] 97 % of control | [2] 94 % of control

COc1ccc2nc(CC(C)C)c3c(c2c1)-c1ccccc1C3=O
inactive: [8] 91 % of control | [15] 87 % of control | dose: 200.0 mg/kg/injection, schedule: Q01DX005 (ip), vehicle: Klucel (hydroxypropylcellulose) (HPC) 89 % of control

O=C(c1ccccc1)C1OC1C(=O)c1ccccc1 (stereo not given)
inactive: dose: 50.0 mg/kg/injection, schedule: Q01DX009 (ip), vehicle: Klucel (hydroxypropylcellulose) (HPC) 95 % of control | [5] 100 % of control | [6] 102 % of control

CCC1C(OC)=CC2(CC)CC1(OC)OC2=O (stereo not given)
inactive: [12] 97 % of control | [13] 98 % of control | [14] 102 % of control

COc1ccc(CCNC2=CC(=O)CCC2)cc1OC
inactive: dose: 50.0 mg/kg/injection, schedule: Q01DX005 (ip), vehicle: saline with Tween-80 101 % of control | dose: 100.0 mg/kg/injection, schedule: Q01DX005 (ip), vehicle: saline with Tween-80 99 % of control | dose: 200.0 mg/kg/injection, schedule: Q01DX005 (ip), vehicle: saline with Tween-80 101 % of control

Clc1ccc(N=C/C=C\C=C/Nc2ccc(Cl)cc2)cc1
inactive: dose: 5.0 mg/kg/injection, schedule: Q01DX009 (ip), vehicle: saline with Tween-80 108 % of control | dose: 10.0 mg/kg/injection, schedule: Q01DX005 (ip), vehicle: saline with Tween-80 108 % of control | dose: 10.0 mg/kg/injection, schedule: Q01DX009 (ip), vehicle: saline with Tween-80 97 % of control | dose: 20.0 mg/kg/injection, schedule: Q01DX005 (ip), vehicle: saline with Tween-80 95 % of control | dose: 20.0 mg/kg/injection, schedule: Q01DX009 (ip), vehicle: saline with Tween-80 95 % of control | dose: 40.0 mg/kg/injection, schedule: Q01DX005 (ip), vehicle: saline with Tween-80 100 % of control | dose: 80.0 mg/kg/injection, schedule: Q01DX005 (ip), vehicle: saline with Tween-80 98 % of control | dose: 160.0 mg/kg/injection, schedule: Q01DX005 (ip), vehicle: saline with Tween-80 93 % of control
